Test results as given in patent EP4700021A1, “NOVEL COMPOUND AND PHARMACEUTICAL COMPOSITION COMPRISING SAME AS ACTIVE INGREDIENT” (Sapiensbio Inc., priority 2023, dated 2025).
Structures can show the parent of a compound that is named as a salt.

Assays:
F-actin = test: inhibition of F-actin formation (rhodamine phalloidin staining) in TGF-β1-treated MRC-5 cells; type: cell-based, human; conditions: compound 10 µM, TGF-β1 (5 ng/mL), 72 hours, FIG. 1
Experimental: In this experimental example, 2 hours after human lung-derived fibroblasts (MRC-5 cells) were treated with Compound 41 (10 µM) or Compound 51 (10 µM) according to the present invention, or DMSO, dissolved in 0.5% FBS-containing serum, TGF-β1 (5 ng/mL) was treated to induce fibrosis. After 72 hours, the cells were immobilized with a 2% paraformaldehyde solution for 10 minutes, and to impart cell membrane permeability, a 0.1% Triton X-100 solution was treated for 10 minutes, and a 1% bovine serum albumin (BSA) solution was treated to prevent non-specific binding. For immunostaining, anti-GAPDH (BIO-RAD) was first treated as a primary antibody, and Alexa Fluor™ Plus 488 for GAPDH labeling was used as a secondary antibody. For staining of an actin cytoskeleton, particularly, F-actin, rhodamine phalloidin (Cytoskeleton) was used to confirm the increase and decrease in F-actin caused by the compounds. The immunohistochemical experimental results were confirmed with a STELLARIS 5 confocal microscope (Leica), F-actin stained with rhodamine phalloidin was standardized with GAPDH labeled with Alexa Fluor™ Plus 488 for quantification.

ACTA2 mRNA [1] = test: qRT-PCR of ACTA2 mRNA in TGF-β1-treated human renal fibroblasts; type: cell-based; conditions: human renal fibroblasts (HRFs); 10 and 50 µM; TGF-β1 (5 ng/mL); 48 hours; FIG. 3
Experimental: (§1) Here, to confirm the degree of fibrosis, ACTA2 or COL1A1 mRNA, which can express α-SMA or collagen type 1, was used as an indicator. α-SMA is a marker for activated myofibroblasts, which are the main effector cells of fibrosis, and myofibroblasts with increased α-SMA expression are known to cause fibrosis by producing a fibrotic protein such as collagen type 1.
(§2) Specifically, human renal fibroblasts (HRFs) were seeded, and cultured for 24 hours under a nutrient-deficient condition for effective cell activation. Afterward, the cells were treated with the compounds (Compounds 51 and 41) according to the present invention, together with TGF-β1 (5 ng/mL) to induce fibrosis, at 10 and 50 µM for 48 hours, respectively, and then cultured to extract RNA therefrom. The RNA was used to perform qRT-PCR. From the experimental results, the mRNA expression levels of ACTA2 and COL1A1 were confirmed, thereby verifying the therapeutic effects of the compounds.

ACTA2 mRNA [2] = test: qRT-PCR of ACTA2 mRNA in TGF-β1-treated human hepatic stellate cells; type: cell-based; conditions: human hepatic stellate cells (HHSCs); 10 and 50 µM; TGF-β1 (5 ng/mL); 48 hours; FIG. 2
Experimental: as §1, with “mRNA that” for “mRNA, which”, “1” for “1,”, “of” for “for”, “COL1A1.” for “collagen type 1.”
as §2, with “hepatic stellate cells (HHSCs)” for “renal fibroblasts (HRFs)”

α-SMA = test: in vitro α-SMA expression inhibition (immunostaining, confocal microscopy) in TGF-β1-treated MRC-5 cells; type: cell-based, human; conditions: TGF-β1 (5 ng/mL), 72 hours, standardized using GAPDH
Text: When scars are generated in tissue, fibroblasts undergo fibroblast-to-myofibroblast transition (FMT), and the resulting myofibroblasts produce the extracellular matrix, leading to tissue fibrosis. α-SMA is a representative biomarker of myofibroblasts, and its expression greatly increases as FMT progresses. Accordingly, through the evaluation of α-SMA expression inhibitory activity, the efficacy of the compounds in inhibiting fibrosis may be evaluated. Therefore, the inhibitory activity of the compounds of the present invention on α-SMA expression was evaluated in cells. To more accurately evaluate the inhibition of α-SMA expression, IC50 values were determined by treating human lung-derived fibroblasts (MRC-5 cells) with the compounds of the present invention in a concentration-dependent manner.
Specifically, 2 hours after the MRC-5 cells were treated with DMSO or compounds dissolved in serum containing 0.5% fetal bovine serum (FBS) in a concentration-dependent manner, fibrosis was induced by treatment with TGF-β1 (5 ng/mL). After 72 hours, the cells were immobilized with a 2% paraformaldehyde solution for 10 minutes, and to impart cell membrane permeability, a 0.1% Triton X-100 solution was treated for 10 minutes, and a 1% bovine serum albumin (BSA) solution was treated to prevent non-specific binding. For immunostaining, anti-GAPDH (BIO-RAD) was first treated as a primary antibody, and Alexa Fluor™ Plus 555 for GAPDH labeling was used as a secondary antibody. For α-SMA staining, an FITC fluorescence-tagged α-SMA primary antibody was used, and thus the increase and decrease in α-SMA caused by the compounds were evaluated. The immunohistochemical experimental results were confirmed with a STELLARIS 5 confocal microscope (Leica), and FITC-stained α-SMA was standardized using GAPDH labeled with Alexa FluorTM Plus 555 for quantification. The IC50 of the compounds according to the present invention was calculated through statistical analysis (linear mixed effects model). […]

COL1A1 mRNA = test: qRT-PCR of COL1A1 mRNA in TGF-β1-treated human renal fibroblasts; type: cell-based; conditions: human renal fibroblasts (HRFs); 10 and 50 µM; TGF-β1 (5 ng/mL); 48 hours; FIG. 3
Experimental: as §1, §2

Compound | IC50 (α-SMA; Homo sapiens) [µM] | further results
N[C@H]1CCN(C(=O)N2CCN(Cc3ccc(F)cc3)c3ccccc32)C1.O=C(O)/C=C/C(=O)O [Compound 41, (S)-(3-aminopyrrolidin-1-yl)(4-(4-fluorobenzyl)-3,4-dihydroquinoxaline-1(2H)-yl)methanone fumaric acid salt] | < 1 | intracellular F-actin formation (F-actin): reduced to a level similar to that of the group not treated with TGF-β1; ACTA2 mRNA expression (ACTA2 mRNA [1]): effectively inhibit the mRNA expression; ACTA2 mRNA expression (ACTA2 mRNA [2]): effectively inhibit the mRNA expression; COL1A1 mRNA expression (COL1A1 mRNA): effectively inhibit the mRNA expression
CC(C)CN[C@H]1CCN(C(=O)N2CCN(Cc3ccccn3)c3ccccc32)C1.O=C(O)/C=C/C(=O)O [Compound 51, (S)-(3-(isobutylamino)pyrrolidin-1-yl)(4-(pyridin-2-ylmethyl)-3,4-dihydroquinoxaline-1(2H)-yl)methanone fumaric acid salt] | < 1 | intracellular F-actin formation (F-actin): reduced to a level similar to that of the group not treated with TGF-β1; ACTA2 mRNA expression (ACTA2 mRNA [1]): effectively inhibit the mRNA expression; ACTA2 mRNA expression (ACTA2 mRNA [2]): effectively inhibit the mRNA expression; COL1A1 mRNA expression (COL1A1 mRNA): effectively inhibit the mRNA expression
CN1CC[C@@H](COC(=O)N2CCN(Cc3ccccn3)c3ccccc32)C1 [Compound 64, (R)-(1-methylpyrrolidin-3-yl)methyl-4-(pyridin-2-ylmethyl)-3,4-dihydroquinoxaline-1(2H)-carboxylate] | < 1 | –
CN1CCC(COC(=O)N2CCN(Cc3ccccn3)c3ccccc32)CC1 [Compound 65, (1-methylpiperidin-4-yl)methyl-4-(pyridin-2-ylmethyl)-3,4-dihydroquinoxaline-1(2H)-carboxylate] | 10 to 30 | –
O=C(NCC1CCNCC1)N1CCN(Cc2ccc(F)cn2)c2ccccc21 [Compound 66, 4-((5-fluoropyridine-2-yl)methyl)-N-(piperidin-4-ylmethyl)-3,4-dihydroquinoxaline-1(2H)-carboxamide oxalic acid salt] | < 1 | –
CN1CCC(CNC(=O)N2CCN(Cc3ccc(F)cn3)c3ccccc32)CC1 [Compound 67, 4-((5-fluoropyridin-2-yl)methyl)-N-((1-methylpiperidin-4-yl)methyl)-3,4-dihydroquinoxaline-1(2H)-carboxamide] | ≤ 30 | –
O=C(NCC1CCNCC1)N1CCN(Cc2ncccc2F)c2ccccc21 [Compound 68, 4-((3-fluoropyridin-2-yl)methyl)-N-(piperidin-4-ylmethyl)-3,4-dihydroquinoxaline-1(2H)-carboxamide] | ≤ 30 | –
CN1CCC(CNC(=O)N2CCN(Cc3ncccc3F)c3ccccc32)CC1 [Compound 69, 4-((3-fluoropyridin-2-yl)methyl)-N-((1-methylpiperidin-4-yl)methyl)-3,4-dihydroquinoxaline-1(2H)-carboxamide] | 1 to 10 | –
CN1CCN(C(=O)N2CCN(C3CCCCC3)c3ccccc32)CC1 [Compound 70, (4-cyclohexyl-3,4-dihydroquinoxaline-1(2H)-yl)(4-methylpiperazin-1-yl)methanone] | 1 to 10 | –
O=C(N1CCCCC1)N1CCN(C2CCCCC2)c2ccccc21 [Compound 71] | 1 to 10 | –
CC(C)CC(=O)N1CCN(C(=O)NCC2CCNCC2)c2ccccc21 [Compound 77, 4-(3-Methylbutanoyl)-N-(piperidin-4-ylmethyl)-3,4-dihydroquinoxaline-1(2H)-carboxamide] | ≤ 30 | –
CC(C)(C)CC(=O)N1CCN(C(=O)N2CCNCC2)c2ccccc21 [Compound 78, 3,3-dimethyl-1-(4-(piperazine-1-carbonyl)-3,4-dihydroquinoxaline-1(2H)-yl)butan-1-one] | ≤ 30 | –
CC(C)(C)CC(=O)N1CCN(C(=O)NCC2CCNCC2)c2ccccc21 [Compound 79, 4-(3,3-dimethylbutanoyl)-N-(piperidin-4-ylmethyl)-3,4-dihydroquinoxaline-1(2H)-carboxamide] | ≤ 30 | –
(S)-N-(1-isobutylpyrrolidin-3-yl)-4-(pyrazin-2-ylmethyl)-3,4-dihydroquinoxaline-1(2H)-carboxamide [Compound 44] | – | IC50 (α-SMA): ≤ 30 µM
